The values that follow come from patent US20240360075A1, “N-SUBSTITUTED C6 CYCLYL CARBOXAMIDE COMPOUNDS AND USES THEREOF” (ALCON INC., priority 2023, published 2024).

Where only a bound is given, the exact number is not on record here.

This assay deals with T1, TRPM8 (Homo sapiens, UniProt Q7Z2W7).
T1 construct: purchased Eurofins (Cerep) item #3316
The assay is described as follows: TRPM8 Human Transient Potential Ion Channel Cell Based Agonist Calcium Flux Assay (Eurofins Cerep item #3316). As to conditions: for Percent Agonist / Emax: control activator ligand icilin; for EC50: room temperature; for Emax: read-out: Percent Agonist. An excerpt:
Compounds can be tested using the commercially available kit from Eurofins “TRPM8 Human Transient Potential Ion Channel Cell Based Agonist Calcium Flux Assay, Cerep” item #3316, or using the assay, referenced by Eurofins, and described in Behrendt et al. “Characterization of the mouse cold-menthol receptor TRPM8 and vanilloid receptor type-1 VR1 using a fluorometric imaging plate reader (FLIPR) assay,” Br J Pharmacol. 2004 Feb;141(4):737-45, which are each incorporated herein by reference. […] 4.
The assay is done at room temperature and measures calcium flux.
On the technique in general: Calcium flux is commonly read through the fluorescence of an indicator in the cells.

As usually defined, the EC50 is the concentration that produces a half-maximal response.

T1 sequence (Q7Z2W7 whole entry): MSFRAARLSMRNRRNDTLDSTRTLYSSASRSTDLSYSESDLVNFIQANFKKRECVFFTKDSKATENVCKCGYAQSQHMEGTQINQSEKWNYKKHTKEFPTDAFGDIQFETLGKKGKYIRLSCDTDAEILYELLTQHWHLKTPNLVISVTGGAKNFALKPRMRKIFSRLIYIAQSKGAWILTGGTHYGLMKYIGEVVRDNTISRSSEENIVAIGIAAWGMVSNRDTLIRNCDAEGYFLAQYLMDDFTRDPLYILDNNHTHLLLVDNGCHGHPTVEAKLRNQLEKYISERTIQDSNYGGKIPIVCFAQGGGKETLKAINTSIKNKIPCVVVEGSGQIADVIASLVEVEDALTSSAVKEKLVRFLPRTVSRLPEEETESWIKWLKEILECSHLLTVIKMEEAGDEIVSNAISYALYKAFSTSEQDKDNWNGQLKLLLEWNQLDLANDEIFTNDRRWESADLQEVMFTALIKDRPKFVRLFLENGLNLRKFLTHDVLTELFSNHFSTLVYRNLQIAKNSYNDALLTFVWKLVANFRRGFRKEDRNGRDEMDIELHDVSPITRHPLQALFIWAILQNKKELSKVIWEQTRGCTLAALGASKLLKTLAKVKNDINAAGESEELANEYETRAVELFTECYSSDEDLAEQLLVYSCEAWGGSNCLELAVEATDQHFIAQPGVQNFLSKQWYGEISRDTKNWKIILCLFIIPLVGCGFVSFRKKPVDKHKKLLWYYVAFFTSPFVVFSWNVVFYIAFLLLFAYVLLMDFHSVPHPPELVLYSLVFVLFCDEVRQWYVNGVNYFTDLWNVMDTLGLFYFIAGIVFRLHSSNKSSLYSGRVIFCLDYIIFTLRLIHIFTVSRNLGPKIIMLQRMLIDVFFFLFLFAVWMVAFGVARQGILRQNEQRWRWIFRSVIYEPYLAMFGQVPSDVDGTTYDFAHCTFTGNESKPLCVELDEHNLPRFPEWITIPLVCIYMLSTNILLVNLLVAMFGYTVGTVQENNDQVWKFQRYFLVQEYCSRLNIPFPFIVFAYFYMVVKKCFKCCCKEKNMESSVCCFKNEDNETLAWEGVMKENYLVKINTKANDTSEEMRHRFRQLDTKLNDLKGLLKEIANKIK

Take `CC(C)[C@@H]1CC[C@@H](C)C[C@H]1C(=O)NC1CC2C(C1)C2(F)F` (stereo partly shown) [92 or 102]: the “Percent Agonist” value was more than 50% and the concentration for a half-maximal effect (EC50) is less than 100 nM.
`CC(C)[C@@H]1CC[C@@H](C)C[C@H]1C(=O)NC1CC2C(C1)C2(F)F` (stereo partly shown) [102 or 92]: the “Percent Agonist” value is reported as more than 75% and the EC50 is less than 500 nM.
The corresponding values for `COc1ccc(NC(=O)[C@@H]2C[C@H](C)CC[C@H]2C(C)C)cc1` [Compound 1] are 100% and 24 nM.
For `CC(C)[C@@H]1CC[C@@H](C)C[C@H]1C(=O)Nc1ccc(N2CCN(C)CC2)cc1` [Compound 2], the Emax is more than 100% and the EC50 was less than 500 nM.
With `COCCOc1ccc(NC(=O)[C@@H]2C[C@H](C)CC[C@H]2C(C)C)cc1` [Compound 3], the Emax is more than 75% and the concentration giving a half-maximal response (EC50) is less than 500 nM.
For the molecule `CC(C)[C@@H]1CC[C@@H](C)C[C@H]1C(=O)Nc1ccc2c(c1)B(O)OC2` [Compound 4], the Emax is more than 50% and the concentration giving a half-maximal response (EC50) is less than 100 nM.
In the case of `COCCOCCOc1ccc(NC(=O)[C@@H]2C[C@H](C)CC[C@H]2C(C)C)cc1` [Compound 5], the Emax is more than 75% and the EC50 was less than 500 nM.
The corresponding values for `CC(C)[C@@H]1CC[C@@H](C)C[C@H]1C(=O)Nc1ccc(C2CC2)cc1` [Compound 6] are more than 75% and less than 100 nM.
Turning to `COCCOCCOc1cccc(NC(=O)[C@@H]2C[C@H](C)CC[C@H]2C(C)C)c1` [Compound 9], the Emax was more than 75% and the EC50 was less than 5000 nM.
The corresponding values for `COc1ccc(CNC(=O)[C@@H]2C[C@H](C)CC[C@H]2C(C)C)cc1` [Compound 10] are more than 75% and less than 5000 nM.
For `CC(C)[C@@H]1CC[C@@H](C)C[C@H]1C(=O)Nc1ccc(OCCN(C)C)cc1` [Compound 11], the Emax was more than 75% and the EC50 was less than 500 nM.
The matching figures for `CC(C)[C@@H]1CC[C@@H](C)C[C@H]1C(=O)Nc1ccc(CO)cc1` [Compound 15]: more than 75% and less than 100 nM.
In the case of `CC(C)[C@@H]1CC[C@@H](C)C[C@H]1C(=O)Nc1ccc(CCO)cc1` [Compound 17], the Emax is more than 75% and the EC50 was less than 100 nM.
The corresponding values for `CC(C)[C@@H]1CC[C@@H](C)C[C@H]1C(=O)Nc1ccc(N2CCOCC2)cc1` [Compound 18] are more than 50% and less than 100 nM.
The matching figures for `CC(C)[C@@H]1CC[C@@H](C)C[C@H]1C(=O)Nc1ccc(OCCN2CCCC2)cc1` [Compound 19]: more than 75% and less than 500 nM.
Regarding `CC(C)[C@@H]1CC[C@@H](C)C[C@H]1C(=O)Nc1ccc(C2(CCO)COC2)cc1` [Compound 20], the Emax was more than 100% and the EC50 was less than 500 nM.
Consider `CC(C)[C@@H]1CC[C@@H](C)C[C@H]1C(=O)Nc1ccc(C2(O)COC2)cc1` [Compound 21], for which the Emax was more than 75% and the EC50 was less than 100 nM.
The corresponding values for `CC(C)[C@@H]1CC[C@@H](C)C[C@H]1C(=O)Nc1ccc(B2OC(C)(C)C(C)(C)O2)cc1` [Compound 22] are more than 100% and less than 500 nM.
Take `CC(C)[C@@H]1CC[C@@H](C)C[C@H]1C(=O)Nc1cccc(C2(O)COC2)c1` [Compound 23]: the Emax is more than 75% and the EC50 is less than 500 nM.
Turning to `CCOC(=O)CC1(c2ccc(NC(=O)[C@@H]3C[C@H](C)CC[C@H]3C(C)C)cc2)COC1` [Compound 24], the Emax was more than 100% and the EC50 was less than 500 nM.
For `COC12CC(NC(=O)[C@@H]3C[C@H](C)CC[C@H]3C(C)C)(C1)C2` [Compound 25], the Emax was more than 75% and the EC50 was less than 100 nM.
For `COCCN1CC(NC(=O)[C@@H]2C[C@H](C)CC[C@H]2C(C)C)C1` [Compound 26], the Emax is more than 75% and the EC50 is less than 1000 nM.
For the molecule `CC(C)[C@@H]1CC[C@@H](C)C[C@H]1C(=O)NC12CC(C#N)(C1)C2` [Compound 27], the Emax was more than 75% and the 50% effective concentration (EC50) was less than 5000 nM.
The corresponding values for `CC(C)[C@@H]1CC[C@@H](C)C[C@H]1C(=O)NC1CN(CCO)C1` [Compound 28] are more than 75% and less than 10000 nM.
The corresponding values for `CC(C)[C@@H]1CC[C@@H](C)C[C@H]1C(=O)NC12CC(F)(C1)C2` [Compound 29] are more than 100% and less than 1000 nM.
In the case of `CC(C)[C@@H]1CC[C@@H](C)C[C@H]1C(=O)NC1CN(CC(=O)OC(C)(C)C)C1` [Compound 30], the EC50 is more than 10000 nM.
For `COC(=O)C12CC(NC(=O)[C@@H]3C[C@H](C)CC[C@H]3C(C)C)(C1)C2` [Compound 31], the Emax is more than 75% and the EC50 was less than 100 nM.
Regarding `CC(C)[C@@H]1CC[C@@H](C)C[C@H]1C(=O)NC1CC2(COC2)C1` [Compound 32], the Emax was more than 75% and the EC50 was less than 2000 nM.
Turning to `CC(C)[C@@H]1CC[C@@H](C)C[C@H]1C(=O)NC12CC(CO)(C1)C2` [Compound 33], the Emax is more than 100% and the 50% effective concentration (EC50) is less than 1000 nM.
As to `CC(C)[C@@H]1CC[C@@H](C)C[C@H]1C(=O)N[C@H]1CC[C@H](N)C1` [Compound 34], the Emax is more than 75% and the 50% effective concentration (EC50) is less than 1000 nM.
With `COCC12CC(NC(=O)[C@@H]3C[C@H](C)CC[C@H]3C(C)C)(C1)C2` [Compound 35], the Emax was more than 75% and the EC50 was less than 100 nM.
With `CC(C)[C@@H]1CC[C@@H](C)C[C@H]1C(=O)NC1CCS(=O)(=O)CC1` [Compound 36], the Emax was more than 75% and the concentration for a half-maximal effect (EC50) is less than 10000 nM.
For the molecule `COC(=O)NC12CC(NC(=O)[C@@H]3C[C@H](C)CC[C@H]3C(C)C)(C1)C2` [Compound 37], the Emax was more than 100% and the EC50 is less than 1000 nM.
For the molecule `CC(C)[C@@H]1CC[C@@H](C)C[C@H]1C(=O)NC1COC1` [Compound 38], the Emax is more than 75% and the EC50 is less than 500 nM.
Take `COC(=O)CC12CC(NC(=O)[C@@H]3C[C@H](C)CC[C@H]3C(C)C)(C1)C2` [Compound 43]: the Emax is more than 75% and the EC50 was less than 1000 nM.
The matching figures for `CC(C)[C@@H]1CC[C@@H](C)C[C@H]1C(=O)NC1CC2(CCCO2)C1` (stereo partly shown) [Compound 44]: more than 75% and less than 1000 nM.
For `CC(C)[C@@H]1CC[C@@H](C)C[C@H]1C(=O)NC12CC(CCO)(C1)C2` [Compound 45], the Emax is more than 100% and the EC50 is less than 1000 nM.
Regarding `CC(C)[C@@H]1CC[C@@H](C)C[C@H]1C(=O)NC12CCC(CO)(CC1)C2` [Compound 46], the Emax is more than 100% and the EC50 is less than 500 nM.
The matching figures for `CC(C)[C@@H]1CC[C@@H](C)C[C@H]1C(=O)NC12CC(NC(=O)CO)(C1)C2` [Compound 47]: more than 100% and less than 500 nM.
Consider `COC1CC(NC(=O)[C@@H]2C[C@H](C)CC[C@H]2C(C)C)C1` (stereo partly shown) [Compound 48], for which the Emax is more than 50% and the EC50 was less than 500 nM.
Consider `CON(C)C(=O)C12CC(NC(=O)[C@@H]3C[C@H](C)CC[C@H]3C(C)C)(C1)C2` [Compound 49], for which the Emax was more than 75% and the 50% effective concentration (EC50) is less than 500 nM.
In the case of `CO[C@H]1CC[C@H](NC(=O)[C@@H]2C[C@H](C)CC[C@H]2C(C)C)CC1` [Compound 50], the Emax is more than 100% and the EC50 was less than 500 nM.
As for `CC(C)[C@@H]1CC[C@@H](C)C[C@H]1C(=O)NC12CC(C(=O)OC(C)(C)C)(C1)C2` [Compound 51], the Emax is more than 75% and the EC50 was less than 100 nM.
The matching figures for `COCCO[C@H]1CC[C@H](NC(=O)[C@@H]2C[C@H](C)CC[C@H]2C(C)C)CC1` [Compound 52]: more than 100% and less than 1000 nM.
For the molecule `CC(C)[C@@H]1CC[C@@H](C)C[C@H]1C(=O)NC12CC(C(=O)O)(C1)C2` [Compound 53], the concentration for a half-maximal effect (EC50) was more than 10000 nM.
As for `CC(C)[C@@H]1CC[C@@H](C)C[C@H]1C(=O)NC1CCN(C)CC1` [Compound 54], the Emax was more than 75% and the EC50 was more than 10000 nM.
Regarding `COC12CCC(NC(=O)[C@@H]3C[C@H](C)CC[C@H]3C(C)C)(CC1)CC2` [Compound 55], the Emax was more than 75% and the EC50 was less than 100 nM.
The corresponding values for `CC(C)[C@@H]1CC[C@@H](C)C[C@H]1C(=O)NCC1COC1` [Compound 56] are more than 75% and less than 10000 nM.
With `COC(=O)C12CCC(NC(=O)[C@@H]3C[C@H](C)CC[C@H]3C(C)C)(CC1)CC2` [Compound 57], the Emax is more than 75% and the EC50 is less than 1000 nM.
In the case of `CC(C)[C@@H]1CC[C@@H](C)C[C@H]1C(=O)NC12CCC(C(F)(F)F)(CC1)C2` [Compound 59], the Emax is more than 75% and the EC50 is less than 1000 nM.
Take `CNC(=O)c1cc(OC)ccc1NC(=O)[C@@H]1C[C@H](C)CC[C@H]1C(C)C` [Compound 61]: the Emax is more than 75% and the EC50 is less than 100 nM.
On to `COC(=O)c1cc(NC(=O)[C@@H]2C[C@H](C)CC[C@H]2C(C)C)sn1` [Compound 62], for which the Emax was more than 75% and the EC50 was less than 500 nM.
On to `CC(C)[C@@H]1CC[C@@H](C)C[C@H]1C(=O)Nc1cc(C(=O)O)ns1` [Compound 64], for which the EC50 is more than 10000 nM.
For `CC(C)[C@@H]1CC[C@@H](C)C[C@H]1C(=O)Nc1ccccc1CN(C)C` [Compound 65], the Emax was more than 50% and the EC50 was less than 1000 nM.
With `CC(C)[C@@H]1CC[C@@H](C)C[C@H]1C(=O)Nc1ccccc1CCN` [Compound 67], the Emax was more than 75% and the EC50 was less than 100 nM.
On to `COC(=O)Cn1cc(NC(=O)[C@@H]2C[C@H](C)CC[C@H]2C(C)C)cn1` [Compound 68], for which the Emax is more than 75% and the EC50 is less than 7500 nM.
